Experimental data: the supplement of paper PMC10307832

compound: Cc1nc(C(=O)NCC(=O)O)c(O)c2ccc(Oc3ccccc3)cc12 [FG-4592] + Nc1nc2[nH]cc(CCc3ccc(C(=O)N[C@@H](CCC(=O)O)C(=O)O)cc3)c2c(=O)[nH]1 [Pemetrexed] (partner 0.2 µM); test: relative viability (nuclei count vs DMSO), 5 days (fraction); higher = more cells survive; settings: first compound 0.08 µM
Outline: (§1)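 Relative viability equals treated-well nuclei counts divided by vehicle-well nuclei counts. Counts came from 4× images of lung cancer cell lines grown in 1536-well plates for 5 days after pin-tool dosing on the day after seeding. Dosing used one drug alone or a fixed anchor-drug dose plus five library-drug doses (not always all listed) in √10 steps, and values are medians of duplicate plates.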

Row | Cell Line | relative viability
1 | ChaGo-K-1 | 0.266
2 | NCI-H2170 | 0.235
3 | NCI-H2405 | 0.81
4 | HOP-62 | 0.287
5 | LU99A | 0.184
6 | BEN | 0.548
7 | HCC-78 | 0.941
8 | LCLC-97TM1 | 0.189
9 | NCI-H2009 | 1.01
10 | A-427 | 0.874
11 | NCI-H441 | 0.267
12 | NCI-H1734 | 0.407
13 | NCI-H460 | 0.0673
14 | NCI-H2347 | 0.411
15 | SK-LU-1 | 0.949
16 | NCI-H1395 | 0.877
17 | 201T | 0.355
18 | NCI-H1915 | 0.469
19 | HCC-827 | 0.232
20 | LXF-289 | 0.853
21 | NCI-H23 | 0.567
22 | NCI-H647 | 0.165
23 | CAL-12T | 1.21
24 | NCI-H1651 | 0.591

same assay, conditions: first compound 0.253 µM

Row | Cell Line | relative viability
25 | COR-L 105 | 0.92
26 | LOU-NH91 | 0.336
27 | ChaGo-K-1 | 0.258
28 | NCI-H2170 | 0.308
29 | NCI-H2405 | 1.01
30 | HOP-62 | 0.317
31 | LU99A | 0.199
32 | BEN | 0.649
33 | NCI-H322M | 0.614
34 | LCLC-97TM1 | 0.152
35 | NCI-H2009 | 1.16
36 | A-427 | 0.96
37 | NCI-H441 | 0.343
38 | NCI-H1734 | 0.408
39 | NCI-H460 | 0.0639
40 | NCI-H2347 | 0.417
41 | SK-LU-1 | 0.842
42 | NCI-H1395 | 0.859
43 | 201T | 0.331
44 | NCI-H1915 | 0.44
45 | HCC-827 | 0.255
46 | LXF-289 | 0.906
47 | NCI-H23 | 0.562
48 | NCI-H647 | 0.14
49 | CAL-12T | 1.3
50 | NCI-H1651 | 0.57

same assay, conditions: first compound 0.8 µM

Row | Cell Line | relative viability
51 | COR-L 105 | 1.13
52 | LOU-NH91 | 0.468
53 | ChaGo-K-1 | 0.26
54 | NCI-H2170 | 0.256
55 | NCI-H2405 | 0.949
56 | HOP-62 | 0.35
57 | BEN | 0.592
58 | HCC-78 | 0.901
59 | NCI-H322M | 0.613
60 | NCI-H2009 | 1
61 | A-427 | 0.895
62 | NCI-H441 | 0.272
63 | NCI-H1734 | 0.419
64 | NCI-H460 | 0.058
65 | NCI-H2347 | 0.439
66 | SK-LU-1 | 1.05
67 | NCI-H1395 | 0.528
68 | 201T | 0.305
69 | NCI-H1915 | 0.542
70 | HCC-827 | 0.235
71 | LXF-289 | 1.02
72 | NCI-H23 | 0.644
73 | NCI-H647 | 0.211
74 | CAL-12T | 1.3
75 | NCI-H1651 | 0.583

same assay, conditions: first compound 2.53 µM

Row | Cell Line | relative viability
76 | COR-L 105 | 1.14
77 | LOU-NH91 | 0.405
78 | ChaGo-K-1 | 0.26
79 | NCI-H2170 | 0.266
80 | NCI-H2405 | 0.792
81 | HOP-62 | 0.304
82 | LU99A | 0.182
83 | BEN | 0.822
84 | HARA | 0.251
85 | HCC-78 | 0.871
86 | NCI-H322M | 0.546
87 | LCLC-97TM1 | 0.145
88 | NCI-H2009 | 1.02
89 | A-427 | 0.986
90 | NCI-H441 | 0.296
91 | NCI-H1734 | 0.422
92 | NCI-H460 | 0.0799
93 | NCI-H2347 | 0.425
94 | SK-LU-1 | 1.06
95 | NCI-H1395 | 0.768
96 | 201T | 0.29
97 | NCI-H1915 | 0.475
98 | HCC-827 | 0.26
99 | LXF-289 | 0.883
100 | NCI-H23 | 0.534
101 | NCI-H647 | 0.161
102 | CAL-12T | 0.974
103 | NCI-H1651 | 0.588

same assay, conditions: first compound 8 µM

Row | Cell Line | relative viability
104 | COR-L 105 | 0.877
105 | LOU-NH91 | 0.407
106 | ChaGo-K-1 | 0.274
107 | NCI-H2170 | 0.252
108 | NCI-H2405 | 0.984
109 | HOP-62 | 0.324
110 | LU99A | 0.199
111 | BEN | 0.726
112 | HARA | 0.24
113 | HCC-78 | 0.909
114 | NCI-H322M | 0.63
115 | LCLC-97TM1 | 0.171
116 | NCI-H2009 | 1.06
117 | A-427 | 0.902
118 | NCI-H441 | 0.248
119 | NCI-H1734 | 0.397
120 | NCI-H460 | 0.0618
121 | NCI-H2347 | 0.478
122 | SK-LU-1 | 1.05
123 | NCI-H1395 | 0.671
124 | 201T | 0.308
125 | NCI-H1915 | 0.477
126 | HCC-827 | 0.255
127 | LXF-289 | 0.948
128 | NCI-H23 | 0.793
129 | NCI-H647 | 0.15
130 | CAL-12T | 1.04
131 | NCI-H1651 | 0.508

compound: Cc1nc(C(=O)NCC(=O)O)c(O)c2ccc(Oc3ccccc3)cc12 [FG-4592] + CC1(C)CCC(c2ccc(Cl)cc2)=C(CN2CCN(c3ccc(C(=O)NS(=O)(=O)c4ccc(N[C@H](CCN5CCOCC5)CSc5ccccc5)c(S(=O)(=O)C(F)(F)F)c4)cc3)CC2)C1 [Navitoclax] (partner 0.5 µM); test: as above; settings: first compound 0.08 µM
Outline: as §1

Row | Cell Line | relative viability
132 | COR-L 105 | 0.777
133 | LOU-NH91 | 0.709
134 | ChaGo-K-1 | 1.04
